Consider six compounds from publication PMC8175350, “Drug repurposing screens identify chemical entities for the development of COVID-19 interventions” (Nature Communications, 2021).

The term EC50 denotes the concentration that produces a half-maximal response. What is called CC50 is the concentration at which the toxic effect on the cells reaches its halfway point.

The subject of data set [1] is SARS-CoV-2. As to the kind of experiment: microbe, parasite or virus in culture. It counts as cell-based. Particulars: for EC50: Severe acute respiratory syndrome coronavirus 2, HeLa-ACE2, read-out: HeLa-ACE2 CoV-2 EC50 GeoMean.
Data set [2] can be described thus: Uninfected HeLa-ACE2 24 h live/dead cytotoxicity counter screen. It counts as cell-based, human. Particulars: human, uninfected HeLa-ACE2 cells. In general terms: Counterscreens check selectivity or assay interference.
Data set [3] relates to HeLa-ACE2 cells. The data set is described as above. It counts as cell-based, human. The conditions noted are these: for HeLa-ACE2 uninfected cytotoxicity Sinf Average (%): Sinf average of the curves; for HeLa-ACE2 uninfected cytotoxicity Sinf Average: curve-fit effect at infinite concentration.
Data set [4] concerns SARS-CoV-2. In words: microbe, parasite or virus in culture. It counts as cell-based. The conditions noted are these: for Emax: Severe acute respiratory syndrome coronavirus 2, Calu-3, 48 h; for EC50: read-out: Calu-3 CoV-2 EC50 GeoMean.
Data set [5] deals with Calu-3 cells. The conditions noted are these: for Calu-3 uninfected cytotoxicity Sinf Average (%) / Calu-3 uninfected cytotoxicity Sinf Average: human.
Data set [6] relates to HeLa-ACE2 cells. In words: cells. The conditions noted are these: Homo sapiens; for Emax: HeLa-ACE2, 24 h, read-out: HeLa-ACE2 cell count Sinf Average.
Data set [7] has as its system Calu-3 cells. In words: cells. Particulars: Homo sapiens; for Emax: Calu-3, 48 h.
The nature of another data set: in vitro. Particulars: human.
The mark [8] stands for this setting: geometric mean of replicates, read-out: HeLa-ACE2 uninfected cytotoxicity CC50 GeoMean.
The mark [9] stands for this setting: Sinf average of the curves, read-out: Calu-3 CoV-2 Sinf Average (%).
[10] abbreviates: Severe acute respiratory syndrome coronavirus 2, Calu-3, geometric mean of replicates.
[11] abbreviates: HeLa-ACE2, read-out: HeLa-ACE2 cell count EC50 GeoMean (µM), geometric mean of replicates.
[12] abbreviates: read-out: Calu-3 cell count Sinf Average (%).
The mark [13] stands for this setting: Calu-3, read-out: Calu-3 cell count EC50 GeoMean (µM), geometric mean of replicates.
Setting [14] is: Calu-3 uninfected cytotoxicity CC50 GeoMean (µM).
Where [15] appears, read: uninfected cells, Fig. 2b group, read-out: HeLa-ACE2 CC50.
[16] abbreviates: unrounded geometric mean, read-out: HeLa-ACE2 uninfected cytotoxicity CC50 GeoMean.
The mark [17] stands for this setting: curve-fit effect at infinite concentration, average, read-out: Calu-3 CoV-2 Sinf Average.
Setting [18] is: Severe acute respiratory syndrome coronavirus 2, Calu-3, unrounded geometric mean.
[19] abbreviates: HeLa-ACE2, read-out: HeLa-ACE2 cell count EC50 GeoMean, unrounded geometric mean.
[20] abbreviates: read-out: Calu-3 cell count Sinf Average.
Where [21] appears, read: Calu-3, read-out: Calu-3 cell count EC50 GeoMean, unrounded geometric mean.

Where two headings read alike, the source gives them in different places.

On to `O=c1[nH]ccc2cc(OC3CCNCC3)ccc12` [SAR-407899], for which the EC50 is more than 9.59 µM in the data set with SARS-CoV-2 [1] (geometric mean of replicates), more than 3850 nM in the data set on SARS-CoV-2 [4] (setting [10]), more than 9.59 µM in the data set with HeLa-ACE2 cells [6] (setting [11]) and 2.72 µM with Calu-3 cells [7] (setting [13]). In addition, the CC50 at 24 h in data set [2] (setting [8]) was more than 38700 nM. In addition, in the data set with HeLa-ACE2 cells [3], the “HeLa-ACE2 uninfected cytotoxicity Sinf Average (%)” value is -100%. The Emax in the data set with SARS-CoV-2 [4] (setting [9]) was 54%; in the data set on Calu-3 cells [7] (setting [12]) it was 97%. Moreover, in the data set with Calu-3 cells [5], the “uninfected Calu-3 CC50 [μM]” value is given as > 29.867 ×÷ 1 (n=3) μM. For the same compound, in the data set on Calu-3 cells [5] (48 h), the “Calu-3 uninfected cytotoxicity Sinf Average (%)” value came to 0%. Further, the CC50 at 48 h in “in vitro” (setting [14]) was more than 29.9 µM.

`CSc1ccc(CN2CCCC(Nc3ccc4[nH]ncc4c3)C2)cc1` (stereo not shown) [INS-117548]: the EC50 in the data set on SARS-CoV-2 [1] (geometric mean of replicates) is more than 9.59 µM; in the data set with SARS-CoV-2 [4] (setting [10]), more than 3550 nM; with HeLa-ACE2 cells [6] (setting [11]), more than 9.59 µM; with Calu-3 cells [7] (setting [13]), 0.31 µM. In addition, the CC50 at 24 h in data set [2] (setting [8]) is more than 39800 nM. In addition, the “HeLa-ACE2 uninfected cytotoxicity Sinf Average (%)” value in the data set with HeLa-ACE2 cells [3] was -100%. The Emax stood at 77% in the data set on SARS-CoV-2 [4] (setting [9]) and 55% with Calu-3 cells [7] (setting [12]). Further, in the data set on Calu-3 cells [5], the “uninfected Calu-3 CC50 [μM]” value is reported as > 29.875 ×÷ 1 (n=2) μM. Also, the “Calu-3 uninfected cytotoxicity Sinf Average (%)” value with Calu-3 cells [5] (48 h) was -92%. In the data set “in vitro” (setting [14]), this compound yielded a CC50 at 48 h of more than 29.9 µM.

Turning to `C[C@@H]1C[C@@H]([C@H](O)CC2CC(=O)NC(=O)C2)C(=O)[C@@H](C)C1` [Cycloheximide], the Emax was 101% with SARS-CoV-2 [1] (Severe acute respiratory syndrome coronavirus 2, HeLa-ACE2, 24 h, curve-fit effect at infinite concentration, average, read-out: HeLa-ACE2 CoV-2 Sinf Average); 98% in the data set on SARS-CoV-2 [4] (setting [17]); 100% with HeLa-ACE2 cells [6]; 50% in the data set with Calu-3 cells [7] (setting [20]). Besides, the EC50 was 0.634 µM in the data set on SARS-CoV-2 [1] (unrounded geometric mean), 195 nM with SARS-CoV-2 [4] (setting [18]), more than 9.44 µM with HeLa-ACE2 cells [6] (setting [19]) and 0.268 µM in the data set on Calu-3 cells [7] (setting [21]). Also, the 50% cytotoxic concentration (CC50) at 24 h in data set [2] (setting [15]) is not above 3000 nM; in data set [2] (setting [16]), 1470 nM. In the data set with HeLa-ACE2 cells [3], the “HeLa-ACE2 uninfected cytotoxicity Sinf Average” value is reported as -80%. The “Calu-3 uninfected cytotoxicity Sinf Average” value with Calu-3 cells [5] was -39%. In “in vitro” (Calu-3 uninfected cytotoxicity CC50 GeoMean, unrounded geometric mean), the CC50 is more than 2430 nM.

In the case of `O[C@@H]1CO[C@H]2[C@@H]1OC[C@H]2Oc1nc2nc(-c3ccc(-c4ccccc4)cc3)c(Cl)cc2[nH]1` [MK-8722], the EC50 with SARS-CoV-2 [1] (geometric mean of replicates) was more than 9.59 µM; in the data set on SARS-CoV-2 [4] (setting [10]), 2730 nM; in the data set with HeLa-ACE2 cells [6] (setting [11]) it was more than 9.59 µM; in the data set on Calu-3 cells [7] (setting [13]), more than 5.66 µM. Also, the CC50 at 24 h in data set [2] (setting [8]) was more than 37400 nM. Moreover, the “HeLa-ACE2 uninfected cytotoxicity Sinf Average (%)” value with HeLa-ACE2 cells [3] was -100%. For the same compound, the Emax in the data set with SARS-CoV-2 [4] (setting [9]) and with Calu-3 cells [7] (setting [12]) was 100% throughout. Moreover, the “uninfected Calu-3 CC50 [μM]” value with Calu-3 cells [5] is recorded as > 29.867 ×÷ 1 (n=3) μM. Besides, the “Calu-3 uninfected cytotoxicity Sinf Average (%)” value in the data set on Calu-3 cells [5] (48 h) is recorded as -95%. Further, the CC50 at 48 h in “in vitro” (setting [14]) was more than 29.9 µM.

For the compound `N#Cc1cccc(C(C(=O)NCC(c2ccccc2)c2ccccc2)N(CCc2c[nH]cn2)C(=O)c2ccccc2C(=O)c2ccccc2)c1` (stereo not shown) [GENZ-29155], the EC50 in the data set on SARS-CoV-2 [1] (geometric mean of replicates) is more than 9.59 µM; with SARS-CoV-2 [4] (setting [10]) it was more than 4660 nM; with HeLa-ACE2 cells [6] (setting [11]), more than 9.59 µM; in the data set on Calu-3 cells [7] (setting [13]), more than 9.98 µM. Moreover, in the data set on SARS-CoV-2 [1] (Sinf average of the curves), the “HeLa-ACE2 CoV-2 Sinf Average (%)” value is reported as -67%. Besides, the CC50 at 24 h in data set [2] (setting [8]) is more than 38500 nM. The “HeLa-ACE2 uninfected cytotoxicity Sinf Average (%)” value in the data set on HeLa-ACE2 cells [3] is -67%. For the same compound, the Emax with SARS-CoV-2 [4] (setting [9]) came out at 79%. The “uninfected Calu-3 CC50 [μM]” value in the data set with Calu-3 cells [5] is given as > 29.867 ×÷ 1 (n=3) μM. Further, the “Calu-3 uninfected cytotoxicity Sinf Average (%)” value in the data set with Calu-3 cells [5] (48 h) is 0%. This compound came in with a CC50 at 48 h in “in vitro” (setting [14]) of more than 29.9 µM.

Regarding `CCCCCCCC/C=C/CCCCCCCC(=O)OC[C@H]1O[C@@H](n2ccc(N)nc2=O)C(F)(F)[C@@H]1O` [Gemcitabine elaidate], the EC50 with SARS-CoV-2 [1] (unrounded geometric mean) is more than 9.59 µM; in the data set on SARS-CoV-2 [4] (setting [18]), 324 nM; in the data set on HeLa-ACE2 cells [6] (setting [19]) it was less than 0.0122 µM; in the data set with Calu-3 cells [7] (setting [21]), more than 3.7 µM. Also, the CC50 at 24 h in data set [2] (setting [15]) was not above 3000 nM; in data set [2] (setting [16]) it was less than 5.82 nM. Moreover, in the data set with HeLa-ACE2 cells [3], the “HeLa-ACE2 uninfected cytotoxicity Sinf Average” value is -53%. The Emax in the data set on SARS-CoV-2 [4] (setting [17]) is 90%; with HeLa-ACE2 cells [6], 51%; in the data set on Calu-3 cells [7] (setting [20]), 48%. Moreover, the “uninfected Calu-3 CC50” value with Calu-3 cells [5] was > 29.867 ×÷ 1 (n=3) μM. Also, the “Calu-3 uninfected cytotoxicity Sinf Average” value in the data set on Calu-3 cells [5] (48 h) was -100%. The compound also displayed a CC50 at 48 h in “in vitro” (Calu-3 uninfected cytotoxicity CC50 GeoMean) of more than 29.9 µM.
